Reference: patent US20240228499A1, “MASP-2 INHIBITORS AND METHODS OF USE” (Omeros Corporation, priority 2022, published 2024)
Where a name gives a salt, the structure may show the parent alone.

How the values were obtained:
human a-thrombin = biological target: T1, human a-thrombin (Homo sapiens, UniProt P00734); test: Enzymatic assay for thrombin (fluorogenic peptide substrate Boc-VPR-AMC); assay type: biochemical; settings: room temperature, 20 mM Hepes pH 7.4, 20 min
T1 construct: enzyme (human a-thrombin (BioPharm® Lab.)); purchased BioPharm Lab
Method: The thrombin assay utilizes a fluorogenic peptide substrate (Boc-VPR-AMC (R&D Systems) and was run at room temperature in an assay buffer containing 20 mM Hepes, pH 7.4, 140 mM NaCl and 0.1% Tween 20. Assay parameters were adjusted such that the assay was linear with respect to time, enzyme, and substrate concentrations. Under these optimized assays conditions, IC50 values were equivalent to Ki values, except in a few cases of “tight binding” inhibitors. Cases of “tight binding” or possible “slow binding” inhibitors were handled by the methods described in Copeland R.A. (2013) Evaluation of Enzyme Inhibitors in Drug Discovery. 2nd Ed. John Wiley and Sons, Inc., Chapters 5-7.
The thrombin assay protocol was carried out as follows. Test compounds were serially diluted in DMSO and then 100 nL of each dilution was transferred to the assay plate(s). 10 μL of Assay Buffer was added, followed by 15 μL of enzyme (human a-thrombin (BioPharm® Lab.)) in assay buffer. 15 μL of substrate in assay buffer was then added and the sample mixed to start the reaction. After 20 min at room temperature, 15 μL of a stop solution (0.1 M acetic acid) was added, the sample was mixed, and the plates were read on a SpectraMax® i3× Microplate Reader with the data exported as Excel files. Each assay plate included a “no inhibitor” (DMSO only) control, a “no enzyme” control, and a reference inhibitor control. % Activity values=100*(ave. test comp. fluorescence−ave. “no enz” fluorescence)/(ave. “DMSO only” fluorescence−ave. “no enz” fluorescence). IC50 and Ki values were very reproducible, with values falling well within +2-fold.

MASP-2 (CCP1-CCP2-SP) = biological target: T2, MASP-2 (CCP1-CCP2-SP) (Homo sapiens, UniProt O00187); test: Enzymatic assay for MASP-2 inhibitory activity (fluorogenic substrate); assay type: biochemical; settings: room temperature, 20 mM Hepes pH 7.4, 20 min
T2 construct: 15 μL of Enzyme MASP-2 (CCP1-CCP2-SP) in Assay Buffer
Method: The MASP-2 assay utilizes a fluorogenic substrate, based on the cleavage site for its natural substrate C2. The assay was run at room temperature in an assay buffer containing 20 mM HEPES, pH 7.4, 140 mM NaCl and 0.1% Tween 20. Assay parameters were adjusted such that the assay was linear with respect to time, enzyme, and substrate concentrations. Under the optimized assays conditions, IC50 values were equivalent to Ki values, except in the few cases of “tight binding” inhibitors. Cases of “tight binding” or possible “slow binding” inhibitors were handled by the methods described in Copeland R. A. (2013) Evaluation of Enzyme Inhibitors in Drug Discovery. 2nd Ed., John Wiley and Sons, Inc., Chapters 5-7.
The MASP-2 assay protocol was carried out as follows. Test compounds were serially diluted in DMSO and then 100 nL of each dilution was transferred to the assay plate(s). 10 μL of Assay Buffer was added, followed by 15 μL of Enzyme MASP-2 (CCP1-CCP2-SP) in Assay Buffer. 15 μL of Substrate in Assay Buffer was then added and the mixture was mixed to start the reaction. After 20 min at room temperature, 15 μL of a stop solution (0.1 M acetic acid) was added, the sample was mixed, and the plates were read on a SpectraMax i3× Microplate Reader with the data exported as an Excel file. Each assay plate included a “no inhibitor” (DMSO only) control, a “no enzyme” control, and a reference inhibitor control. % Activity values=100*(average test comp. fluorescence−average “no enzyme” fluorescence)/(average “DMSO only” fluorescence−average “no enzyme” fluorescence). IC50 and Ki replicate values were very reproducible, with values well within +2-fold.

T2 sequence (O00187 287-686 limits assumed): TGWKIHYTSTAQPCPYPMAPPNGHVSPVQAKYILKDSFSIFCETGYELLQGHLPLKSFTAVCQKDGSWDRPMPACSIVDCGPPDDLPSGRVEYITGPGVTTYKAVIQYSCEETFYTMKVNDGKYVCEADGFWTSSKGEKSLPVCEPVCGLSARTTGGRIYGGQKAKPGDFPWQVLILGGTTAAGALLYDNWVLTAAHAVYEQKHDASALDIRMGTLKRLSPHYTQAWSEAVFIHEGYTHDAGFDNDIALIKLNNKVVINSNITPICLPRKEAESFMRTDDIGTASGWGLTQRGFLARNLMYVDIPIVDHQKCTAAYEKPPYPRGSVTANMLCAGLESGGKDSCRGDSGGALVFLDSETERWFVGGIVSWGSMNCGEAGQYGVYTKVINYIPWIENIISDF

Compound | Ki (human a-thrombin) [nM] | Ki (MASP-2 (CCP1-CCP2-SP)) [nM]
Cc1nc(N)ccc1CNC(=O)[C@@H]1CCc2ncc(NCc3cc(C(F)(F)F)ccc3F)c(=O)n21 [Compound 38, (S)-N-((6-amino-2-methylpyridin-3-yl)methyl)-3-((2-fluoro-5-(trifluoromethyl)benzyl)amino)-4-oxo-4,6,7,8-tetrahydro-pyrrolo[1,2-a]pyrimidine-6-carboxamide, di-trifluoroacetate] | 2500 to 10000 | < 500
Cc1cc(C)cc(CNc2cnc3n(c2=O)[C@H](C(=O)N[C@H](C)c2ccc(N)nc2)CC3)c1 [Compound 16] | > 25000 | < 500
COc1c(F)ccc(F)c1CNc1cnc2n(c1=O)[C@H](C(=O)NCc1ccc(N)nc1C)CC2 [Compound 36, (S)-N-((6-amino-2-methylpyridin-3-yl)methyl)-3-((3,6-difluoro-2-methoxybenzyl)amino)-4-oxo-4,6,7,8-tetrahydropyrrolo[1,2-a]pyrimidine-6-carboxamide, di-trifluoroacetate] | 2500 to 10000 | < 500
Cc1nc(N)ccc1CNC(=O)[C@@H]1CCc2ncc(NCc3cccc(OC4CC4)c3)c(=O)n21 [Compound 37, (S)-N-((6-amino-2-methylpyridin-3-yl)methyl)-3-((3-cyclopropoxybenzyl)amino)-4-oxo-4,6,7,8-tetrahydropyrrolo[1,2-a]pyrimidine-6-carboxamide, trifluoroacetate] | < 500 | < 500
Cc1nc(N)ccc1CNC(=O)[C@@H]1CCc2ncc(NCc3ccccc3C(F)F)c(=O)n21 [Compound 27, (S)—N-((6-amino-2-methylpyridin-3-yl)methyl)-3-((2-(difluoromethyl)benzyl)amino)-4-oxo-4,6,7,8-tetrahydropyrrolo[1,2-a]pyrimidine-6-carboxamide, di-trifluoroacetate] | 500 to 2500 | < 500
Cc1cc(C)cc(CNc2cnc3n(c2=O)[C@H](C(=O)N[C@@H](C)c2ccc(N)nc2)CC3)c1 [Compound 15, (S)—N—((S)-1-(6-aminopyridin-3-yl)ethyl)-3-((3,5-dimethylbenzyl)amino)-4-oxo-4,6,7,8-tetrahydropyrrolo[1,2-a]pyrimidine-6-carboxamide] | > 25000 | < 500
Cc1cc(C)cc(CNc2cnc3n(c2=O)[C@H](C(=O)NCc2cccnc2C)CC3)c1 [Compound 23, (S)-3-((3,5-dimethylbenzyl)amino)-N-((2-methylpyridin-3-yl)methyl)-4-oxo-4,6,7,8-tetrahydropyrrolo[1,2-a]pyrimidine-6-carboxamide, trifluoroacetate] | > 25000 | 2500 to 10000
Cc1nc(N)ccc1CNC(=O)[C@@H]1CCc2ncc(NCc3cccc(OC(F)(F)F)c3F)c(=O)n21 [Compound 39, (S)-N-((6-amino-2-methylpyridin-3-yl)methyl)-3-((2-fluoro-3-(trifluoromethoxy)benzyl)amino)-4-oxo-4,6,7,8-tetrahydro-pyrrolo[1,2-a]pyrimidine-6-carboxamide, di-trifluoroacetate] | 500 to 2500 | < 500
Cc1cc(C)cc(CNc2cnc3n(c2=O)[C@H](C(=O)NCc2ccc(N)nc2)CC3)c1 [Compound 4, (S)—N-((6-aminopyridin-3-yl)methyl)-3-((3,5-dimethylbenzyl)amino)-4-oxo-4,6,7,8-tetrahydropyrrolo[1,2-a]pyrimidine-6-carboxamide] | 500 to 2500 | < 500
Cc1cc(C)cc(CNc2cnc3n(c2=O)[C@H](C(=O)NCc2ccc(N)nc2C)CC3)c1 [Compound 1, (S)—N-((6-amino-2-methylpyridin-3-yl)methyl)-3-((3,5-dimethylbenzyl)amino)-4-oxo-4,6,7,8-tetrahydropyrrolo[1,2-a]pyrimidine-6-carboxamide] | 500 to 2500 | < 500

Results, then the compound that gave them:

Ki (human a-thrombin) [nM] | Ki (MASP-2 (CCP1-CCP2-SP)) [nM] | Compound
2500 to 10000 | < 500 | Cc1nc(N)ccc1CNC(=O)[C@@H]1CCc2ncc(NCc3ccccc3)c(=O)n21 [Compound 59]
500 to 2500 | < 500 | N#Cc1cc(F)cc(CNc2cnc3n(c2=O)[C@H](C(=O)N[C@@H]2CCc4nc(N)ccc42)CC3)c1 [Compound 93, (S)-N-((R)-2-amino-6,7-dihydro-5H-cyclopenta[b]pyridin-5-yl)-3-((3-cyano-5-fluorobenzyl)amino)-4-oxo-4,6,7,8-tetrahydro-pyrrolo[1,2-a]pyrimidine-6-carboxamide]
< 500 | < 500 | COc1cc(F)cc(CNc2cnc3n(c2=O)[C@H](C(=O)NCc2ccc(N)nc2C)CC3)c1 [Compound 49, (S)-N-((6-amino-2-methylpyridin-3-yl)methyl)-3-((3-fluoro-5-methoxybenzyl)amino)-4-oxo-4,6,7,8-tetrahydropyrrolo[1,2-a]pyrimidine-6-carboxamide, di-trifluoroacetate]
< 500 | < 500 | Cc1cc(Cl)cc(CNc2cnc3n(c2=O)[C@H](C(=O)N[C@@H]2CCc4nc(N)ccc42)CC3)c1 [Compound 83, (S)—N—((R)-2-amino-6,7-dihydro-5H-cyclopenta[b]pyridin-5-yl)-3-((3-chloro-5-methylbenzyl)amino)-4-oxo-4,6,7,8-tetrahydropyrrolo[1,2-a]pyrimidine-6-carboxamide]
500 to 2500 | < 500 | Cc1nc(N)ccc1CNC(=O)[C@@H]1CCc2ncc(NCc3cc(OC(F)(F)F)ccc3F)c(=O)n21 [Compound 41, (S)-N-((6-amino-2-methylpyridin-3-yl)methyl)-3-((2-fluoro-5-(trifluoromethoxy)benzyl)amino)-4-oxo-4,6,7,8-tetrahydro-pyrrolo[1,2-a]pyrimidine-6-carboxamide, di-trifluoroacetate]
500 to 2500 | < 500 | COc1cccc(CNc2cnc3n(c2=O)[C@H](C(=O)NCc2ccc(N)nc2C)CC3)c1C [Compound 48, (S)-N-((6-amino-2-methylpyridin-3-yl)methyl)-3-((3-methoxy-2-methylbenzyl)amino)-4-oxo-4,6,7,8-tetrahydropyrrolo[1,2-a]pyrimidine-6-carboxamide, trifluoroacetate]
< 500 | < 500 | COc1cc(Cl)cc(CNc2cnc3n(c2=O)[C@H](C(=O)N[C@@H]2CCc4nc(N)ccc42)CC3)c1 [Compound 87, (S)-N-((R)-2-amino-6,7-dihydro-5H-cyclopenta[b]pyridin-5-yl)-3-((3-chloro-5-methoxybenzyl)amino)-4-oxo-4,6,7,8-tetrahydro-pyrrolo[1,2-a]pyrimidine-6-carboxamide]
10000 to 25000 | < 500 | Nc1ccc2c(n1)CC[C@H]2NC(=O)[C@@H]1CCc2ncc(NCc3cccc(-c4ccccc4)c3)c(=O)n21 [Compound 102]
< 500 | < 500 | N#Cc1cc(Cl)cc(CNc2cnc3n(c2=O)[C@H](C(=O)N[C@@H]2CCc4nc(N)ccc42)CC3)c1 [Compound 89, (S)-N-((R)-2-amino-6,7-dihydro-5H-cyclopenta[b]pyridin-5-yl)-3-((3-chloro-5-cyanobenzyl)amino)-4-oxo-4,6,7,8-tetrahydro-pyrrolo[1,2-a]pyrimidine-6-carboxamide]
500 to 2500 | < 500 | Cc1cccc(C(C)Nc2cnc3n(c2=O)[C@H](C(=O)NCc2cc4c(s2)CNC4)CC3)c1 (single isomer, unassigned) [Compound 69, di-trifluoroacetate]
500 to 2500 | < 500 | COc1cc(CNc2cnc3n(c2=O)[C@H](C(=O)NCc2ccc(N)nc2C)CC3)ccc1C [Compound 45, (S)-N-((6-amino-2-methylpyridin-3-yl)methyl)-3-((3-methoxy-4-methylbenzyl)amino)-4-oxo-4,6,7,8-tetrahydropyrrolo[1,2-a]pyrimidine-6-carboxamide, trifluoroacetate]
